Values quoted from earlier work, collected in Sander's compilation of Henry's law constants (doi:10.1080/10643389609388492).

Assay: Henry solubility constant Hcp at 298.15 K (mol/(m3 Pa))
Conditions: reference: Staudinger and Roberts (1996); cited value

SMILES | Henry solubility constant Hcp
CC(Cl)(Cl)Cl [1,1,1-trichloroethane] | 0.00058
ClC(Cl)C(Cl)Cl [1,1,2,2-tetrachloroethane] | 0.024
ClCC(Cl)Cl [1,1,2-trichloroethane] | 0.011
C=C(Cl)Cl [1,1-dichloroethene] | 0.00034
ClCC(Cl)CCl [1,2,3-trichloropropane] | 0.034
CC(Cl)CCl (stereo not given) [1,2-dichloropropane] | 0.0034
Cc1ccccc1C [1,2-dimethylbenzene] | 0.0019
Cc1cccc(C)c1 [1,3-dimethylbenzene] | 0.0013
Cc1ccc(C)cc1 [1,4-dimethylbenzene] | 0.0013
O=Cc1ccccc1 [benzaldehyde] | 0.39
c1ccccc1 [benzene] | 0.0016
ClC(Cl)Br [bromodichloromethane] | 0.004
Clc1ccccc1 [chlorobenzene] | 0.0027
CCCl [chloroethane] | 0.00083
C=CCl [chloroethene] | 0.00039
ClC(Br)Br [dibromochloromethane] | 0.0085
ClCCl [dichloromethane] | 0.0036
CCc1ccccc1 [ethylbenzene] | 0.0012
ClC(Cl)(Cl)C(Cl)(Cl)Cl [hexachloroethane] | 0.0025
Cc1ccccc1 [methylbenzene] | 0.0015
CC(C)=O [propanone] | 0.3
ClC(Cl)=C(Cl)Cl [tetrachloroethene] | 0.00058
ClC(Cl)(Cl)Cl [tetrachloromethane] | 0.00034
BrC(Br)Br [tribromomethane] | 0.017
ClC=C(Cl)Cl [trichloroethene] | 0.00099
